Test results reported in patent US11001563B2, “SSAO inhibitor” (SHANDONG DANHONG PHARMACEUTICAL CO., LTD., priority 2017, dated 2021).

Assays:
[1] = biological target: VAP-1/SSAO (Homo sapiens (Human), UniProt Q16853); assay: Human VAP-1 enzyme activity assay (Amplex Red Monoamine Oxidase kit); assay type: biochemical; settings: 10 nM VAP-1 enzyme, 30 min preincubation, benzylamine substrate; read-out: Human Recombinant VAP-1/SSAO Enzyme Inhibitory Activity IC50
Method: Human VAP-1 enzyme activity assay:
The inhibition of the sample on VAP-enzyme activity was measured by using an Amplex® Red Monoamine Oxidase kit (Invitrogen #A12214). 100 nL of the gradiently-diluted to-be-tested compound (solvent DMSO) was added to a 384-well plate. 25 μL of 10 nM VAP-1 enzyme solution was added and incubated for 30 minutes at room temperature. A substrate mixture of VAP-1 enzyme (200 μM Amplex Red, 1 U/mL HRP, 1 mM Benzylamine) was added and incubated for 60 minutes at room temperature. After the incubation, the fluorescent signal was read with a microplate reader Envision (excitation light wavelength 530-560 nm, emission light wavelength 590 nm). The fluorescence signal value after the background signal was removed was analyzed by Prism software, and the IC50 of the sample against the VAP-1 enzyme was calculated.

[2] = Compound pharmacokinetic evaluation in CD-1 mice; assay type: in vivo, CD-1 mouse; settings: male, mouse, plasma
Method: Experimental purpose: compound pharmacokinetics were tested in CD-1 mice
CD-1 mouse (Male, 25-35 g, 6-9 weeks old, Shanghai Slack);
Experimental procedure: the pharmacological characteristics of the compound after intravenous and oral administration were tested in rodents by standard protocol, candidate compounds in the experiment was prepared into clear solutions to be administered to the mice in a single intravenous injection and orally. The intravenous and oral solvents were a certain proportion of an aqueous hydroxypropyl β-cyclodextrin solution or a physiological saline solution. Whole blood samples within 24 hours were collected, and centrifuged at 3000 g for 15 minutes, the supernatant was separated to obtain plasma samples, 4 times volume of acetonitrile solution containing internal standard was added to precipitate protein, centrifuging was conducted to take the supernatant, equal volume of water was added and centrifuging was conducted to take the supernatant to be sampled. The LC-MS/MS analysis method was used to quantitatively analyze the plasma concentration, and the pharmacokinetic parameters such as peak concentration, peak time, clearance rate, half-life, area under the drug concentration-time curve, and bioavailability were calculated.

[3] = Distribution of compounds in liver and blood of CD-1 mice; assay type: in vivo; settings: single oral dose
Method: Experimental purpose: distribution of compounds in liver and blood of CD-1 mice was tested;
CD-1 Mice (male, 25-35 g, 6-9 weeks old, Shanghai Slack);
Experimental procedure: after oral administration, the drug was distributed in the liver and blood of rodents, candidate compounds in the experiment were formulated into a clear solution to be administered to mice in a single oral dose. The oral solvent was a certain proportion of an aqueous solution of hydroxypropyl P-cyclodextrin or a physiological saline solution. The concentration of the drug in the liver and blood was measured at 1 hour and 4 hours after administration.

[4] = biological target: CYP1A2 (Homo sapiens (Human), UniProt P05177); assay: Human liver microsomal CYP inhibition assay; assay type: in vitro ADME; settings: human liver microsomes, 5-in-1 probe substrate
Method: (§1) The purpose of the study was to evaluate the inhibition of the test sample on human liver microsomal cytochrome P450 isozymes (CYP1A2, CYP2C9, CYP2C19, CYP2D6, and CYP3A4) by using the CYP isozyme 5-in-1 probe substrate.
(§2) Mixed human liver microsomes (HLM) were purchased from Corning Inc. (Steuben, N.Y., USA) or XenoTech, LLC. (Lenexa, Kans., USA) or other suppliers, and stored at the temperature below −70° C. prior to use.
(§3) A series of diluted test sample working solution were added to an incubation system containing cofactors of human liver microsomes, a probe substrate and a circulation system, and the control without a test substance but containing a solvent was used as enzyme activity control (100%). The concentration of the metabolite produced by the probe sample in the sample was determined by liquid chromatography-tandem mass spectrometry (LC-MS/MS). Non-linear regression analysis was performed on the concentration of the average percent activity of the test sample by using SigmaPlot (V.11). The IC50 value was calculated by a three-parameter or four-parameter recursive logarithmic equation.

[5] = biological target: CYP2C19 (Homo sapiens (Human), UniProt P33261); assay: Human liver microsomal CYP inhibition assay; assay type: in vitro ADME; settings: human liver microsomes, 5-in-1 probe substrate
Method: as §1, §2, §3

[6] = biological target: CYP2C9 (Homo sapiens (Human), UniProt P11712); assay: Human liver microsomal CYP inhibition assay; assay type: in vitro ADME; settings: human liver microsomes, 5-in-1 probe substrate
Method: as §1, §2, §3

[7] = biological target: CYP2D6 (Homo sapiens (Human), UniProt P10635); assay: Human liver microsomal CYP inhibition assay; assay type: in vitro ADME; settings: human liver microsomes, 5-in-1 probe substrate
Method: as §1, §2, §3

[8] = biological target: CYP3A4 (Homo sapiens (Human), UniProt P08684); assay: Human liver microsomal CYP inhibition assay; assay type: in vitro ADME; settings: human liver microsomes, 5-in-1 probe substrate
Method: as §1, §2, §3

Sequence of CYP1A2 (P05177 whole entry): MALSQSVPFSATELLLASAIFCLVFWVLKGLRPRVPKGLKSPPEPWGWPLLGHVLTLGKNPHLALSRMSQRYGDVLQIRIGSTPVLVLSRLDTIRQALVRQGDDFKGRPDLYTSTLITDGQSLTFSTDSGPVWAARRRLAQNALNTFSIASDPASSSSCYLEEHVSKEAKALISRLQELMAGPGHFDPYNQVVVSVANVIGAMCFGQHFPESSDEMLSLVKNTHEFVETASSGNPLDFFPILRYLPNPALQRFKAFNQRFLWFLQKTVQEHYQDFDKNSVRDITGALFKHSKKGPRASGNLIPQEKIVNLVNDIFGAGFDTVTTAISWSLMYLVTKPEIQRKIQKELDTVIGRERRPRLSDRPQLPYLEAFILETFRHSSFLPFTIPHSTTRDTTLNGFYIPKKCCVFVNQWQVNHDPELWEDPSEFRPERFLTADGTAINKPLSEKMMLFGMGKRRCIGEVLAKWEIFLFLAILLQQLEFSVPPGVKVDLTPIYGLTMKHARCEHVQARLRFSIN
Sequence of CYP2C9 (P11712 whole entry): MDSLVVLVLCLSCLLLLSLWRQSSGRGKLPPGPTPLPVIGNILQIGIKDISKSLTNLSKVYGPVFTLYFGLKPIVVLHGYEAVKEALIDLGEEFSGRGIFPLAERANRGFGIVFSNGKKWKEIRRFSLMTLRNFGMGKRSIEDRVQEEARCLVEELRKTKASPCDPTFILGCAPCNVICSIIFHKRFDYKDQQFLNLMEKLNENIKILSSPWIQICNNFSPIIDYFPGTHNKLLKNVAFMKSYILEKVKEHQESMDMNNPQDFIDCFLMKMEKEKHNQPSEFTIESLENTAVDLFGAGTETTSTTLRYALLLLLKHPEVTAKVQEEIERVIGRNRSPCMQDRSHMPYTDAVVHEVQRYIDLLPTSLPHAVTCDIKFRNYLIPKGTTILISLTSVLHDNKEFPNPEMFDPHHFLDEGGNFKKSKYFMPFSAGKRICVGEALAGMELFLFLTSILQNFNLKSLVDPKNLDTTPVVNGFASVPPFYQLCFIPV
Sequence of CYP2D6 (P10635 whole entry): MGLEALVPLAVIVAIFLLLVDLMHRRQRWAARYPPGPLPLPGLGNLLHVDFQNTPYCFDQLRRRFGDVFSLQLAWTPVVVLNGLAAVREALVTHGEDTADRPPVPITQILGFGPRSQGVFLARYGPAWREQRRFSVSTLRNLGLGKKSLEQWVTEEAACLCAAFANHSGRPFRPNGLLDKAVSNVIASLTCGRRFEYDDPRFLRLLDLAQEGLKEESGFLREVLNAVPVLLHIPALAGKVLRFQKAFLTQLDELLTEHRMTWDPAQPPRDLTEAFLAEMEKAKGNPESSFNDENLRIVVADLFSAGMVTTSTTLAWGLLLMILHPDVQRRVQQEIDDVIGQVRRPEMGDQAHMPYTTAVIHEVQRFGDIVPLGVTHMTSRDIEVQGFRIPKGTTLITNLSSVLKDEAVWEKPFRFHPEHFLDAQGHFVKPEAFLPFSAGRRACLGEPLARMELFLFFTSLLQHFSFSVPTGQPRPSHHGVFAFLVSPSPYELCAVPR
Sequence of VAP-1/SSAO (Q16853 whole entry): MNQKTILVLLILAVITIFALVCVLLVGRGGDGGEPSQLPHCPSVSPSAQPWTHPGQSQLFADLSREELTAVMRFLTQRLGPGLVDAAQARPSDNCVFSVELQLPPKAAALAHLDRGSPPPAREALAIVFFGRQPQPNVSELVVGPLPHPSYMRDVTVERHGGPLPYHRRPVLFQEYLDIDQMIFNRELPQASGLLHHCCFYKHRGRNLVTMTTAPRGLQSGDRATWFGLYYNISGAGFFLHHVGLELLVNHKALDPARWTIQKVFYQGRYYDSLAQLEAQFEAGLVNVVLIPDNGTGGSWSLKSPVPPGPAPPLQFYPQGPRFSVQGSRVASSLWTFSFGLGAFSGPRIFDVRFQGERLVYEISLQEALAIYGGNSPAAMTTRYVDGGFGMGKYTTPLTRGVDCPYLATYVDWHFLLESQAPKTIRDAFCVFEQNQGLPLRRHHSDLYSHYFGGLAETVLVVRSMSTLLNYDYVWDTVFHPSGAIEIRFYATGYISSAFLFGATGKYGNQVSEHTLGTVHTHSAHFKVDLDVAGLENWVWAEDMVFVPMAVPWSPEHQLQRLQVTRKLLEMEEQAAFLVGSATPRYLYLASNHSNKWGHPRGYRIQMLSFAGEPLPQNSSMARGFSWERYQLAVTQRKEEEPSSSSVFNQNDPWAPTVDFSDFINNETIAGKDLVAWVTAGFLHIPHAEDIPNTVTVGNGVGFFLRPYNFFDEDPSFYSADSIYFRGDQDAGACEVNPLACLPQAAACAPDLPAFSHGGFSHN
Sequence of CYP2C19 (P33261 whole entry): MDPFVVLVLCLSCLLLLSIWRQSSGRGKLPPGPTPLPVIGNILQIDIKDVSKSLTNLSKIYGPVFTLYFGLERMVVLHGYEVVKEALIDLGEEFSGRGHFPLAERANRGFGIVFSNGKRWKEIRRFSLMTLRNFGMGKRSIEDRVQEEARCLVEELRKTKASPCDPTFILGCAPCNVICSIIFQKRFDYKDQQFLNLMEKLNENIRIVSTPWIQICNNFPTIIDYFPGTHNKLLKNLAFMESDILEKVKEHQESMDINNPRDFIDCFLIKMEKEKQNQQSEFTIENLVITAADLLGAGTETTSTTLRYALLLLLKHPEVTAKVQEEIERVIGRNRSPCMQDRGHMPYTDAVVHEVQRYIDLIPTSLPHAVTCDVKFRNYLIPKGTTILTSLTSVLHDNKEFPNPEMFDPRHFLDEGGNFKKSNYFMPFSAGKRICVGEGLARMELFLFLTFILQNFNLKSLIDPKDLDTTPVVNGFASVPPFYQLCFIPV
Sequence of CYP3A4 (P08684 whole entry): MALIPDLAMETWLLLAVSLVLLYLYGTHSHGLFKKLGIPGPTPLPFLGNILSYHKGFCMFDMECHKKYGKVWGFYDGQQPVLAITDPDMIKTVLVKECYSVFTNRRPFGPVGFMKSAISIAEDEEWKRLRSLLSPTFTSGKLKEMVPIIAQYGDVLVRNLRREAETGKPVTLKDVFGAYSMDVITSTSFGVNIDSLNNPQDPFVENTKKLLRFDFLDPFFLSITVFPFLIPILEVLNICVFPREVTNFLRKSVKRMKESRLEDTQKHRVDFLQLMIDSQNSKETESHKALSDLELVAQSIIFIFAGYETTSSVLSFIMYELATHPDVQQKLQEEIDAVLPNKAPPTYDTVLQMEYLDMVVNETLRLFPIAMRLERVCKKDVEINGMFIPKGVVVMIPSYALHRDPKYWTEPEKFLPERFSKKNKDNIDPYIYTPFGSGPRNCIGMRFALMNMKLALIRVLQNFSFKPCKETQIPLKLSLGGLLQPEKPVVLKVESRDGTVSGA

## Cl.Cn1nc(-c2ccc(OC/C(=C/F)CN)cc2)nc1C(F)F [WX126]
[1]
  IC50: 0.0002 µM
[2]; oral, read-out: Concentration Integral AUC
  AUC: 6.49 µM·h
[2]; oral, read-out: Peak Time Tmax
  Tmax: 30 min
[2]; po, read-out: Bioavailability F
  bioavailability: 102%
[2]; single intravenous injection and oral, read-out: Peak Concentration Cmax
  Cmax: 3.53 µM
[3]; @1.0 hour
  Liver Concentration: 13520
  Liver Concentration/Plasma Concentration ratio: 15
  Plasma Concentration: 934
[3]; @4.0 hour
  Liver Concentration: 3364
  Liver Concentration/Plasma Concentration ratio: 17
  Plasma Concentration: 190
[4]
  IC50: 5 µM
[5]
  IC50: 17 µM
[6]
  IC50: 24 µM
[7]
  IC50: 36 µM
[8]
  IC50: > 50 µM
